The results in this text go back to article PMC4247381, “Control of somatic membrane potential in nociceptive neurons and its implications for peripheral nociceptive transmission” (Pain, 2014).

Structures are written as SMILES. Where two headings read alike, the source gives them in different places.

In one experiment the target is T1, Kv7.2/Kv7.3 (Homo sapiens, UniProt O43525+O43526).
T1 construct: gene KCNQ2; with Kv7.3 (KCNQ3)
Description: Rb+ efflux assay and whole-cell patch clamp in CHO cells expressing Kv7.[…]/Kv7.[…] (activator). The format is cell-based. For orientation: Patch clamp records ionic current or voltage across a cell membrane.

Another experiment has as its target T2, Cav3.2 (Homo sapiens, UniProt O95180).
T2 construct: gene CACNA1H
In words: whole-cell patch clamp of recombinant human Cav3.[…] in HEK293 cells (enhancer). It counts as cell-based.

T1 sequence (O43526 whole entry): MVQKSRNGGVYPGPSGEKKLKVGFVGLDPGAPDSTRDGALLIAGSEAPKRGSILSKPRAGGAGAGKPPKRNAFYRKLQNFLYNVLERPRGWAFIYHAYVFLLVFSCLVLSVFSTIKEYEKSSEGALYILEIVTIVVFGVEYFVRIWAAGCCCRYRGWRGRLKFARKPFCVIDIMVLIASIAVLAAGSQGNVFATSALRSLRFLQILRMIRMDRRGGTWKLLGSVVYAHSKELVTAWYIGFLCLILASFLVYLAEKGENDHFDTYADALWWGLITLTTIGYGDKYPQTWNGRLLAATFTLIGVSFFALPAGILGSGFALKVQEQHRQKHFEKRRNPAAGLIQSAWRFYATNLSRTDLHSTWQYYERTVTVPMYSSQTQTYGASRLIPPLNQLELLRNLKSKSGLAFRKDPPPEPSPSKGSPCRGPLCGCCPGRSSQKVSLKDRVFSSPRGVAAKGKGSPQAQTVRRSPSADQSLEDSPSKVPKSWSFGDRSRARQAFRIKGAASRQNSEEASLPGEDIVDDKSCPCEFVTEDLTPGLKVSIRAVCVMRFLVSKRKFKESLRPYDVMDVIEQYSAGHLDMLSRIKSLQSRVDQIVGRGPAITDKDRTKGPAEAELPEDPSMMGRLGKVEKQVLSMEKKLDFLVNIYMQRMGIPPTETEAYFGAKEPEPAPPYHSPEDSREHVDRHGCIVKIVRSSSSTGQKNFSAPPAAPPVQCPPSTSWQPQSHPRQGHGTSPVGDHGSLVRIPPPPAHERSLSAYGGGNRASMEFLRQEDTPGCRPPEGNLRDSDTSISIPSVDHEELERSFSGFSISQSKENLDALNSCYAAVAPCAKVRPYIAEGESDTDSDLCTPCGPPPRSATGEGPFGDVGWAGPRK
T1 sequence (O43525 whole entry): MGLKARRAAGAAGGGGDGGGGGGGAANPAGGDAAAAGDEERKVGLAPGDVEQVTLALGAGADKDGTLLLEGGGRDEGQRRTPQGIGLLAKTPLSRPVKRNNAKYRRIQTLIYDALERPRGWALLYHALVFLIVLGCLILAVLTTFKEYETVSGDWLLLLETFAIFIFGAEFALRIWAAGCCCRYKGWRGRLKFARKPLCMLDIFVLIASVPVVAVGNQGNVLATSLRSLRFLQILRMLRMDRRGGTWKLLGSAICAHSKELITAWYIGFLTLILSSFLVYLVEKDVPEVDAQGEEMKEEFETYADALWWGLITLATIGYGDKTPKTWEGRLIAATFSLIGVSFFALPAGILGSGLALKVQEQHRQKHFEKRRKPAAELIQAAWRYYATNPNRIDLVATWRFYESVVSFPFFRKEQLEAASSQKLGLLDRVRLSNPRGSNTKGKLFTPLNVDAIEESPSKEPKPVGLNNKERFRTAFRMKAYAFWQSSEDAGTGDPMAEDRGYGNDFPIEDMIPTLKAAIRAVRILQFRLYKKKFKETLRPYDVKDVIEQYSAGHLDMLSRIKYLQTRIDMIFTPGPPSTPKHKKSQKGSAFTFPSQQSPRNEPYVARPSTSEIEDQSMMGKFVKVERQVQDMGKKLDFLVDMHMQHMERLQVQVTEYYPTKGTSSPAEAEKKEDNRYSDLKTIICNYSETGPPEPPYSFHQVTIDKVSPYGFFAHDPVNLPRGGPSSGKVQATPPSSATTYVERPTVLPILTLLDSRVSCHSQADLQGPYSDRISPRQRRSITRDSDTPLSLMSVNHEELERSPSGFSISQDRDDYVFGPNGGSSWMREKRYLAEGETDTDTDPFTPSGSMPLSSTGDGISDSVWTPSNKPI
T2 sequence (O95180 whole entry): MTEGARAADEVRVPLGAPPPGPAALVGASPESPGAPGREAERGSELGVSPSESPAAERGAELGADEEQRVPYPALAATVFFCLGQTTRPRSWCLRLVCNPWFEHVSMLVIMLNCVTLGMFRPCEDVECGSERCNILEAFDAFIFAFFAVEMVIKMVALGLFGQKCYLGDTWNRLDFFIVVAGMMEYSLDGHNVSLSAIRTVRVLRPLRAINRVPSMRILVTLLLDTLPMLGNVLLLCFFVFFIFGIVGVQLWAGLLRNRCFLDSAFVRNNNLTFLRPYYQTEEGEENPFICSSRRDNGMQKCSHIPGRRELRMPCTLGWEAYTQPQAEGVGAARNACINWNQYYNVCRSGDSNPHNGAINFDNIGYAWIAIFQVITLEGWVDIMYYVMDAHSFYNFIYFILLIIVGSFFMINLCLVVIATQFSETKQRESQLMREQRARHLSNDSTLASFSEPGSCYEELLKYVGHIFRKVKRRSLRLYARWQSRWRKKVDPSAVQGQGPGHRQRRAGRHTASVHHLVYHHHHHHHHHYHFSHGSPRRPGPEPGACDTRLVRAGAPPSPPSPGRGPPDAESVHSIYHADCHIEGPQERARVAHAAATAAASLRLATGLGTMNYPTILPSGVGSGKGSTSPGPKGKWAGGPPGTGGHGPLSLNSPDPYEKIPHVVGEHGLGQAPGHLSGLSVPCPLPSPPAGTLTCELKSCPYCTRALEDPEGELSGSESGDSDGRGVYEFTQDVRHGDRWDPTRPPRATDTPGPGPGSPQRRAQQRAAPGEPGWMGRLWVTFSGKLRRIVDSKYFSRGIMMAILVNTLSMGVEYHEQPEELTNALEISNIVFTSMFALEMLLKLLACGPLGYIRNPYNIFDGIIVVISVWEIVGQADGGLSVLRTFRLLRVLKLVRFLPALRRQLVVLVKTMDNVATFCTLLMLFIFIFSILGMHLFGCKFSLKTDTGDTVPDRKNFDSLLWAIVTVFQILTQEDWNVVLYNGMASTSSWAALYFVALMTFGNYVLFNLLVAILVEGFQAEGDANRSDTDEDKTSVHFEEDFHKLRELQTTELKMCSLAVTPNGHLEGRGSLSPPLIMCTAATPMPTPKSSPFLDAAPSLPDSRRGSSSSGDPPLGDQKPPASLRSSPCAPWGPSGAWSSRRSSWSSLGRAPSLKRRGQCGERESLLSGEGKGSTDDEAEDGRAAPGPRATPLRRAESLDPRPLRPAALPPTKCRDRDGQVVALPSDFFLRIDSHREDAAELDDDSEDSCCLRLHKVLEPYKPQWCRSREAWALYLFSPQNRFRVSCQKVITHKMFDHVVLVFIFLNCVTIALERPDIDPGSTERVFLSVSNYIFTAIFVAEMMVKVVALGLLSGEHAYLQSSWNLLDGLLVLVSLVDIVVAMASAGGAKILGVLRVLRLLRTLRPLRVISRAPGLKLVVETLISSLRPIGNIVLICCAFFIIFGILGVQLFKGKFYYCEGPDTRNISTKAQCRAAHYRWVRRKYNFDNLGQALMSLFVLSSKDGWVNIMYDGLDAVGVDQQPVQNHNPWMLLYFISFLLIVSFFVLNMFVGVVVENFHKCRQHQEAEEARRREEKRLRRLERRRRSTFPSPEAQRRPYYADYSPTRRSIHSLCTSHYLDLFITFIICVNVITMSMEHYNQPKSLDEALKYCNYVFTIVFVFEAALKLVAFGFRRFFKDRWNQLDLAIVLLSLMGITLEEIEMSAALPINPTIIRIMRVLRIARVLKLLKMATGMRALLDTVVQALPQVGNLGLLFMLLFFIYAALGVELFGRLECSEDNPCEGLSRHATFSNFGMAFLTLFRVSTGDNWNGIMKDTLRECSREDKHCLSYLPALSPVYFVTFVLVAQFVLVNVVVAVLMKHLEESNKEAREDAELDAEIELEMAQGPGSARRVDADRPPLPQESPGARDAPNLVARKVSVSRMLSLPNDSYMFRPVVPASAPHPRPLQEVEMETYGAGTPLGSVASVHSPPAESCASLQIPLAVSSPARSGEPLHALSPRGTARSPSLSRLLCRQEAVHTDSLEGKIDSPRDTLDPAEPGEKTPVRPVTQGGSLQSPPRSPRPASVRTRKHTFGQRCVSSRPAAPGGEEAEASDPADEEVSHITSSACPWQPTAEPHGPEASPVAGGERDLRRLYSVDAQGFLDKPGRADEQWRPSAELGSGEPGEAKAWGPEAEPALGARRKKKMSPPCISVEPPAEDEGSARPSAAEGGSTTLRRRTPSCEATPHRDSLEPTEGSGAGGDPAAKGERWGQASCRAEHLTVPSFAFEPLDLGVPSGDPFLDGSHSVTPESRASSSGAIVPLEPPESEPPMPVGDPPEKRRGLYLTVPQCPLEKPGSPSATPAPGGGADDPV

Consider `CCOC(=O)Nc1ccc(NCc2ccc(F)cc2)cc1N` [RTG, Retigabine], for which the response on Kv7.2/Kv7.3 was half-maximal at 0.7 ± 0.09 µM (EC50). `O=C1N=C2C=CC=CN2C12Cc1ccccc1C2` [ST101, spiro[imidazo[1,2-a]pyridine-3,2-indan]-2(3H)-one]: the EC50 (usually the concentration needed to bring the measured effect to its halfway point) at Cav3.2 worked out at 0.00012 ± 4e-05 µM. Consider `Oc1c(Cl)cc(Cl)cc1Sc1cc(Cl)cc(Cl)c1O` [BITH, Bithionol], for which the EC50 on Kv7.2/Kv7.3 (read-out: EC50) stood at 4.9 ± 1.08 µM.
